Values after ≈ are worked out from the molar mass of the structure shown.
What was measured:
[1] = Clearance in dog at 10 mg/kg, iv; format: ADME, organism-based, Canis lupus familiaris; set-up: dose 10 mg/kg, route intravenous; conditions: plasma
[2] = target: ATP-binding cassette sub-family C member 2 (Homo sapiens, UniProt Q92887); assay: Stimulation of ATPase activity of human MRP2 assessed as inorganic phosphate
[3] = test system: Staphylococcus aureus; assay: Antimicrobial activity against methicillin-resistant Staphylococcus aureus by broth microdilution/CLSI method; format: functional
[4] = Selectivity ratio for human topoisomerase 2 alpha to bacterial type 2 topoisomerase
[5] = target: Voltage-gated inwardly rectifying potassium channel KCNH2 (Homo sapiens, UniProt Q12809); assay: Inhibition of human ERG at 100 uM
[6] = test system: Enterococcus faecalis; assay: Antimicrobial activity against Enterococcus faecalis by broth microdilution/CLSI method; format: functional
[7] = test system: Enterococcus faecalis; assay: Antimicrobial activity against vancomycin-resistant Enterococcus faecalis by broth microdilution/CLSI method; format: functional
[8] = test system: Mus musculus; assay: fAUC in methicillin-sensitive Staphylococcus aureus ARC516 infected in neutropenic CD1 mouse thigh model at 30 mg/kg, ip q24; format: ADME, organism-based; set-up: dose 30 mg/kg, route intraperitoneal; conditions: in vivo
[9] = test system: Staphylococcus aureus; assay: Antimicrobial activity against 2 times drug resistance selected Staphylococcus aureus ARC1692-2F by broth microdilution/CLSI method; format: functional
[10] = Bioavailability in Wistar rat at 10 mg/kg, […]; format: ADME, organism-based; conditions: in vivo
[11] = Ratio of MIC for methicillin, quinolone-resistant Staphylococcus aureus to fraction unbound in human plasma; format: ADME
[12] = Percentage unbound in dog plasma; format: ADME, cell-free, Canis lupus familiaris
[13] = Octanol-phosphate buffer distribution coefficient, log D of the compound at pH 7.4 by shake flask method; format: physicochemical
[14] = target: T1, Cytochrome P450 1A2 (Homo sapiens, UniProt P05177); assay: Inhibition of human CYP1A2 at 50 uM; format: ADME
T1 sequence (P05177 whole entry): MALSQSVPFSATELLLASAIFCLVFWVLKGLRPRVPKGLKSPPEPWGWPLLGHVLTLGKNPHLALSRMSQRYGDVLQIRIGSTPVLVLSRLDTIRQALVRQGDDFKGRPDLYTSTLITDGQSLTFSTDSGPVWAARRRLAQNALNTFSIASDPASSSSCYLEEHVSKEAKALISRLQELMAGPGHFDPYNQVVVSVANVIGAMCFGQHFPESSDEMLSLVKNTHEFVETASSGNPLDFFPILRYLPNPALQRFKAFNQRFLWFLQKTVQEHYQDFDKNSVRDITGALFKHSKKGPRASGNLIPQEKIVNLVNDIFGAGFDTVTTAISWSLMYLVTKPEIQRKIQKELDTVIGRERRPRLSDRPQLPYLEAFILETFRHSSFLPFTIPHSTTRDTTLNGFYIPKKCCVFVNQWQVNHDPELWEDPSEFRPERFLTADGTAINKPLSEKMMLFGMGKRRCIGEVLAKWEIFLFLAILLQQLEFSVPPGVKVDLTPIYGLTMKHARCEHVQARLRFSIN

[15] = test system: Staphylococcus aureus; assay: Antibacterial activity against methicillin-sensitive Staphylococcus aureus ARC516 infected in neutropenic CD1 mouse thigh model assessed as decrease in bacterial viable counts at 30 mg/kg, ip after 24 hrs; format: functional; conditions: route intraperitoneal
[16] = test system: Staphylococcus aureus; assay: Antibacterial activity against methicillin-sensitive Staphylococcus aureus ARC516 infected in neutropenic CD1 mouse thigh model assessed as decrease in bacterial viable counts at 30 mg/kg, ip q24; format: functional; conditions: route intraperitoneal
[17] = test system: Staphylococcus aureus; assay: Antimicrobial activity against Staphylococcus aureus ARC1692 by broth microdilution/CLSI method; format: functional
[18] = test system: Staphylococcus aureus; assay: Antimicrobial activity against methicillin, quinolone-resistant Staphylococcus aureus by broth microdilution/CLSI method; format: functional; conditions: Staphylococcus aureus; read-out: MIC
[19] = test system: Haemophilus influenzae; assay: Antimicrobial activity against amoxicillin-resistant Haemophilus influenzae by broth microdilution/CLSI method; format: functional
[20] = test system: Enterococcus faecium; assay: Antimicrobial activity against Enterococcus faecium by broth microdilution/CLSI method; format: functional
[21] = test system: Staphylococcus aureus; assay: Antimicrobial activity against 2 times drug resistance selected Staphylococcus aureus ARC2398-1F by broth microdilution/CLSI method; format: functional
[22] = Percentage unbound in rat plasma; format: ADME, cell-free
[23] = test system: Staphylococcus aureus; assay: Ratio of MIC for 2 times drug resistance selected Staphylococcus aureus ARC1692-1F to MIC for Staphylococcus aureus ARC1692; format: functional
[24] = Clearance in Wistar rat at 10 mg/kg, iv; format: ADME, organism-based; set-up: dose 10 mg/kg, route intravenous; conditions: in vivo
[25] = Percentage unbound in human plasma; format: ADME, cell-free
[26] = test system: Staphylococcus aureus; assay: Antimicrobial activity against 2 times drug resistance selected Staphylococcus aureus ARC2398-2F by broth microdilution/CLSI method; format: functional

ATP-binding cassette sub-family C member 2, sequence (Q92887 whole entry): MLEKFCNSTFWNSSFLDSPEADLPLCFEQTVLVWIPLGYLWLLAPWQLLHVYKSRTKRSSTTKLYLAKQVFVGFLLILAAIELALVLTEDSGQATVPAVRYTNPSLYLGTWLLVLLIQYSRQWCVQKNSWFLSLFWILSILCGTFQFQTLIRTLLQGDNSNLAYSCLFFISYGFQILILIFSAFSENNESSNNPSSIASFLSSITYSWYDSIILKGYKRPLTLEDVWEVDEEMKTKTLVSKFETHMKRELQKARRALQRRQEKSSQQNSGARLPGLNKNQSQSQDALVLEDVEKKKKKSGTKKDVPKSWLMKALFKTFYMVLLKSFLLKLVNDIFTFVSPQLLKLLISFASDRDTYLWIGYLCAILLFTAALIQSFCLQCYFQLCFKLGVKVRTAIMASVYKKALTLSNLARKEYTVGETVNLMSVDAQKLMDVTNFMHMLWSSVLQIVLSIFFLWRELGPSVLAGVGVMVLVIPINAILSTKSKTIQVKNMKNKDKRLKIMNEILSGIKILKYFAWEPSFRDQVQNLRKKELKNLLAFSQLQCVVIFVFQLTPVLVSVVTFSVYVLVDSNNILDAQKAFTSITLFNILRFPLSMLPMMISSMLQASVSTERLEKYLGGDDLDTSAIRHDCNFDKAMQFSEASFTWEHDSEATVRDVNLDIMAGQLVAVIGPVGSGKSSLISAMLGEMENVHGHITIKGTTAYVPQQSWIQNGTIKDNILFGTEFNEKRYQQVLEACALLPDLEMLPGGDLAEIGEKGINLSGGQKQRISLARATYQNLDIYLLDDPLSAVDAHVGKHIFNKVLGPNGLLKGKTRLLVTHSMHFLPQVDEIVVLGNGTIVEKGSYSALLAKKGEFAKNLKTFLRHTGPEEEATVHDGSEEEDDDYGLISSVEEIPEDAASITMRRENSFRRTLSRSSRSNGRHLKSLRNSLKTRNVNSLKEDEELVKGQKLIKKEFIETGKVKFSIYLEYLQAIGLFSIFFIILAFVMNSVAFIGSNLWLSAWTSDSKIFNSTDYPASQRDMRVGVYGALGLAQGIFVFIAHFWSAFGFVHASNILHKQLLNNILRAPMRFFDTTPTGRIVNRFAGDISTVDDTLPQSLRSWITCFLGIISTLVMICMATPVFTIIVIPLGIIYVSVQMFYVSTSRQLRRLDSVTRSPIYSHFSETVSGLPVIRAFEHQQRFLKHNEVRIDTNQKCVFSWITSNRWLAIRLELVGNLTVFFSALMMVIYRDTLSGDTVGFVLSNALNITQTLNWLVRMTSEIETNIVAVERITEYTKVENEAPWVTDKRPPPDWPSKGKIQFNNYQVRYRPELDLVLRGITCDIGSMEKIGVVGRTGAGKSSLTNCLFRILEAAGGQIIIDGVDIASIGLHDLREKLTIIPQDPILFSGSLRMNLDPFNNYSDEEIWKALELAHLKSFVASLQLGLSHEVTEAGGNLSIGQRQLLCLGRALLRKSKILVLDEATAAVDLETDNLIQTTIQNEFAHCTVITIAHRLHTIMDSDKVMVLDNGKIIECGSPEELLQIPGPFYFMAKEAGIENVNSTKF
Voltage-gated inwardly rectifying potassium channel KCNH2, sequence (Q12809 whole entry): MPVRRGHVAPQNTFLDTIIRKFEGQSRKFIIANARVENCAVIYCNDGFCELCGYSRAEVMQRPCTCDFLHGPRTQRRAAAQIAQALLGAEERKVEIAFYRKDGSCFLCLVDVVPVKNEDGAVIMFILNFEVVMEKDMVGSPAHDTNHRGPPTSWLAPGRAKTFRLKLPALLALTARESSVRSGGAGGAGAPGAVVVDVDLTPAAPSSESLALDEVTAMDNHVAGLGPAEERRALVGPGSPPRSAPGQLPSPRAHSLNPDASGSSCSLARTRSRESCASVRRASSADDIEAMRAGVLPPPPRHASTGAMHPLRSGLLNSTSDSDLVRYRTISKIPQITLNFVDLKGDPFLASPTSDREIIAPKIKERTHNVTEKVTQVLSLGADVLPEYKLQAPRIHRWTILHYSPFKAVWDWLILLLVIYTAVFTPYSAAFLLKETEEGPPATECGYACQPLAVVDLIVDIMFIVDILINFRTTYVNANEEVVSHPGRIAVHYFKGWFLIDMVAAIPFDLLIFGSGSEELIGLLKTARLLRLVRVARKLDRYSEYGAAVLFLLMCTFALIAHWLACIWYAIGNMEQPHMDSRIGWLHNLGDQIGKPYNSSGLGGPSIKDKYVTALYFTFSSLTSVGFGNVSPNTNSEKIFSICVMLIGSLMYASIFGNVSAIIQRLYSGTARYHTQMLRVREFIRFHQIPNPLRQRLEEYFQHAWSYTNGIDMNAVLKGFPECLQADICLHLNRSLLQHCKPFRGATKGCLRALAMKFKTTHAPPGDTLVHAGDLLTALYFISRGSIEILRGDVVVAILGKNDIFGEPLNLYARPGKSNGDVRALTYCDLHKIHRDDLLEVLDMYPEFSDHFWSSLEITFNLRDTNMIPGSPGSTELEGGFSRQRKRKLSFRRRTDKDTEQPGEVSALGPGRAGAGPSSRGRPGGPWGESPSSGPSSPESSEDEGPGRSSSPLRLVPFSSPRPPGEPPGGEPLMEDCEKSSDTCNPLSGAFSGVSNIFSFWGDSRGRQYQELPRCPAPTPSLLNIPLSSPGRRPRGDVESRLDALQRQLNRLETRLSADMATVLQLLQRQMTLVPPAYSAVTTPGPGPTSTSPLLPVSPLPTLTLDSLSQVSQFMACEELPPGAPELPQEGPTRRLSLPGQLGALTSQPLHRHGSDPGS

Work on `COC[C@H](C)NC(=O)c1nc(N2CC[C@@H](NC(=O)c3[nH]c(C)c(Cl)c3Cl)[C@@H](OC)C2)sc1C(=O)O` [AZD-5099] yielded a clearance [1] of 0.64 mL/min/kg, an EC50 [2] of over 200 µM and an MIC90 [3] of 0.06 µg/mL (≈ 0.109 µM). For the same compound, the Selectivity ratio [4] was 10000, the “inhibition (INH)” value [5] was “Not Active” and the MIC90 [6] was 0.015 µg/mL (≈ 0.0273 µM). It also gave an MIC90 [7] of 0.015 µg/mL (≈ 0.0273 µM), a fAUC [8] of 5450 ng·h/mL and an MIC [9] of 0.5 µg/mL (≈ 0.912 µM). For the same compound, the bioavailability [10] was 81%, the Ratio [11] was 2.3 and the fraction unbound [12] was 0.062. For the same compound, the logD [13] was 1.4, the “inhibition (INH)” value [14] was “Not Active” and the “fold change (FC)” value [15] was 2. For the same compound, the deltalog10CFU [16] was 1.51, the MIC [17] was 0.06 µg/mL (≈ 0.109 µM) and the MIC [18] was 0.057 µg/mL (≈ 0.104 µM). For the same compound, the MIC90 [19] was 0.25 µg/mL (≈ 0.456 µM), the MIC90 [20] was 0.06 µg/mL (≈ 0.109 µM) and the MIC [21] was 0.5 µg/mL (≈ 0.912 µM). For the same compound, the fraction unbound [22] was 0.034, the Ratio [23] was 8 and the clearance [24] was 4 mL/min/kg. The fraction unbound [25] was 0.025 and the MIC [26] was 0.5 µg/mL (≈ 0.912 µM).
